# Reference: patent publication US9303045B2, “5-HT3 receptor antagonists” (Takeda Pharmaceutical Company Limited, priority 2013, dated 2016)
# Structures can show the parent of a compound that is named as a salt.
# Target: 5HT3a receptor expressed in HEK-293T cells (Homo sapiens (Human), UniProt P46098)
# Assay: Inhibition of Ca flux activity of 5HT3 in vitro assay
# Type: cell-based
# Conditions: calcium flux, 5HT 216 nM, approximate values
# In short: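 HEK-293T cells transiently transfected with human 5HT3a, loaded 1 hour at 37° C with calcium dye in HBSS/20 mM HEPES, preincubated with compound (10^−7 to 10^−10, half-log) 10 minutes at room temperature.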
# 5HT3a receptor expressed in HEK-293T cells, sequence (P46098 24-478): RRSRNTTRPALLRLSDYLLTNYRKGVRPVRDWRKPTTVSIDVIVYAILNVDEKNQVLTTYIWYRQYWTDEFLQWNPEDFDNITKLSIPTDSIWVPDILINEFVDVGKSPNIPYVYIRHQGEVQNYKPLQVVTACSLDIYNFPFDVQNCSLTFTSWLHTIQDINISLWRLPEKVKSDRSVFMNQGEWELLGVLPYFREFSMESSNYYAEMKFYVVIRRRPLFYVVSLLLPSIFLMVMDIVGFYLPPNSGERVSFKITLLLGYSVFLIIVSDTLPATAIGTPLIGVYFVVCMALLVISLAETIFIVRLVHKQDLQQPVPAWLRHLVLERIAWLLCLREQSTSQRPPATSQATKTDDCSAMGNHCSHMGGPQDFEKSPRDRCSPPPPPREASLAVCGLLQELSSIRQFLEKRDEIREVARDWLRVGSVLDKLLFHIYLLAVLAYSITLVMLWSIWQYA
row,Molecule,IC50
1,"CN1[C@@H]2COC[C@H]1CC(OC(=O)c1cn(S(C)(=O)=O)c3ccccc13)C2 (stereo partly drawn) [Example 47, (1R,5S,7S)-9-methyl-3-oxa-9-azabicyclo[3.3.1]nonan-7-yl 1-(methylsulfonyl)-1H-indole-3-carboxylate, 2,2,2-trifluoroacetate]",0.33 nM
2,"O=C(NC1C[C@H]2COC[C@@H](C1)N2)c1cn(CC(F)F)c2ncccc12 (stereo partly drawn) [Example 82, N-((1R,5S,7S)-3-oxa-9-azabicyclo[3.3.1]nonan-7-yl)-1-(2,2-difluoroethyl)-1H-pyrrolo[2,3-b]pyridine-3-carboxamide, 2,2,2-trifluoroacetate]",> 1000 nM
3,"CC(C)S(=O)(=O)n1cc(C(=O)NC2C[C@H]3COC[C@@H](C2)N3C)c2ccccc21 (stereo partly drawn) [Example 111, N-((1R,5S,7S)-9-methyl-d3-3-oxa-9-azabicyclo[3.3.1]nonan-7-yl)-1-(isopropylsulfonyl)-1H-indole-3-carboxamide, 2,2,2-trifluoroacetate]",0.77 nM
4,"O=C(OC1CC2COCC(C1)N2)c1cn(-c2cnsc2)c2ccccc12 [Example 143, (1R,5S,7s)-3-oxa-9-azabicyclo[3.3.1]nonan-7-yl 1-(isothiazol-4-yl)-1H-indole-3-carboxylate, 2,2,2-trifluoroacetic acid salt]",0.415 nM
5,"O=C(N[C@@H]1CN2CCC1CC2)c1cn(CC(F)F)c2ncccc12 [Example 116, (S)-1-(2,2-difluoroethyl)-N-(quinuclidin-3-yl)-1H-pyrrolo[2,3-b]pyridine-3-carboxamide, 2,2,2-trifluoroacetate]",> 1000 nM
6,"CN1[C@@H]2COC[C@H]1C[C@@H](NC(=O)c1cn(-c3cnccn3)c3ccccc13)C2 [Example 129, N-((1R,5S,7S)-9-methyl-3-oxa-9-azabicyclo[3.3.1]nonan-7-yl)-1-(pyrazin-2-yl)-1H-indole-3-carboxamide, di-2,2,2-trifluoroacetate]",0.64 nM
7,"CN1[C@@H]2COC[C@H]1CC(NC(=O)c1cn(CC(C)(F)F)c3ncccc13)C2 (stereo partly drawn) [Example 108, 1-(2,2-difluoropropyl)-N-((1R,5S,7S)-9-methyl-3-oxa-9-azabicyclo[3.3.1]nonan-7-yl)-1H-pyrrolo[2,3-b]pyridine-3-carboxamide, 2,2,2-trifluoroacetate]",1.05 nM
8,"5-fluoro-N-((1R,5S,7S)-9-methyl-d3-3-oxa-9-azabicyclo[3.3.1]nonan-7-yl)-1-(2,2,2-trifluoroethyl)-1H-pyrrolo[2,3-b]pyridine-3-carboxamide 2,2,2-trifluoroacetate [Example 18]",4.06 nM
9,"CN1[C@@H]2COC[C@H]1CC(NC(=O)c1nn(CC(F)F)c3ncccc13)C2 (stereo partly drawn) [Example 66, 1-(2,2-difluoroethyl)-N-((1R,5S,7S)-9-methyl-3-oxa-9-azabicyclo[3.3.1]nonan-7-yl)-1H-pyrazolo[3,4-b]pyridine-3-carboxamide, 2,2,2-trifluoroacetate]",1.07 nM
10,"CN1C2COCC1CC(NC(=O)c1nn(-c3cncs3)c3ccccc13)C2 [Example 165, N-((1R,5S,7s)-9-methyl-3-oxa-9-azabicyclo[3.3.1]nonan-7-yl)-1-(thiazol-5-yl)-1H-indazole-3-carboxamide, 2,2,2-trifluoroacetic acid salt]",1.53 nM
11,"CN1C2CCC1CC(NC(=O)c1nn(S(C)(=O)=O)c3ccccc13)C2 [Example 62, N-((1R,3R,5S)-8-methyl-8-azabicyclo[3.2.1]octan-3-yl)-1-(methylsulfonyl)-1H-indazole-3-carboxamide, 2,2,2-trifluoroacetate]",0.75 nM
12,"CC(C)CS(=O)(=O)n1cc(C(=O)OC2C[C@H]3COC[C@@H](C2)N3)c2ccccc21 (stereo partly drawn) [Example 135, (1R,5S,7S)-3-oxa-9-azabicyclo[3.3.1]nonan-7-yl 1-(isobutylsulfonyl)-1H-indole-3-carboxylate, 2,2,2-trifluoroacetate]",11.7 nM
13,"CN1C2COCC1CC(NC(=O)c1cn(-c3cncnc3)c3ccccc13)C2 [Example 120, N-((1R,5S,7S)-9-methyl-3-oxa-9-azabicyclo[3.3.1]nonan-7-yl)-1-(pyrimidin-5-yl)-1H-indole-3-carboxamide, 2,2,2-trifluoroacetate]",0.39 nM
14,"CN1[C@@H]2COC[C@H]1C[C@@H](OC(=O)c1cn(CC(F)F)c3ncccc13)C2 [Example 48, (1R,5S,7S)-9-methyl-3-oxa-9-azabicyclo[3.3.1]nonan-7-yl 1-(2,2-difluoroethyl)-1H-pyrrolo[2,3-b]pyridine-3-carboxylate]",0.84 nM
15,"CN1C2COCC1CC(NC(=O)c1cn(-c3ccccc3)c3ccccc13)C2 [Example 174, N-((1R,5S,7s)-9-methyl-3-oxa-9-azabicyclo[3.3.1]nonan-7-yl)-1-phenyl-1H-indole-3-carboxamide, 2,2,2-trifluoroacetic acid salt]",2.06 nM
16,"O=C(OC1CC2COCC(C1)N2)c1cn(-c2cnccn2)c2ccccc12 [Example 141, (1R,5S,7s)-3-oxa-9-azabicyclo[3.3.1]nonan-7-yl 1-(pyrazin-2-yl)-1H-indole-3-carboxylate, 2,2,2-trifluoroacetic acid salt]",1.12 nM

row,Molecule,IC50
1,"CN1[C@@H]2CC[C@H]1CC(OC(=O)c1c(Cl)n(CCF)c3ccccc13)C2 (stereo partly drawn) [Example 55, (1R,3R,5S)-8-methyl-8-azabicyclo[3.2.1]octan-3-yl 2-chloro-1-(2-fluoroethyl)-1H-indole-3-carboxylate, 2,2,2-trifluoroacetate]",0.9 nM
2,"O=C(O[C@H]1C[C@H]2COC[C@@H](C1)N2)c1cn(-c2ncco2)c2ccccc12 [Example 177, (1R,5S,7s)-3-oxa-9-azabicyclo[3.3.1]nonan-7-yl 1-(oxazol-2-yl)-1H-indole-3-carboxylate, 2,2,2-trifluoroacetic acid salt]",3.22 nM
3,"CS(=O)(=O)n1cc(C(=O)NC2C[C@H]3COC[C@@H](C2)N3)c2cc(F)ccc21 (stereo partly drawn) [Example 78, N-((1R,5S,7S)-3-oxa-9-azabicyclo[3.3.1]nonan-7-yl)-5-fluoro-1-(methylsulfonyl)-1H-indole-3-carboxamide, 2,2,2-trifluoroacetate]",4.81 nM
4,"CN1[C@@H]2CCC[C@H]1CC(NC(=O)c1cn(CC(F)F)c3ccc(F)cc13)C2 (stereo partly drawn) [Example 98, 1-(2,2-difluoroethyl)-5-fluoro-N-((1R,3R,5S)-9-methyl-9-azabicyclo[3.3.1]nonan-3-yl)-1H-indole-3-carboxamide, 2,2,2-trifluoroacetate]",5.45 nM
5,"CN1[C@@H]2COC[C@H]1CC(OC(=O)c1cn(CC(F)F)c3ccc(F)cc13)C2 (stereo partly drawn) [Example 58, (1R,5S,7S)-9-methyl-3-oxa-9-azabicyclo[3.3.1]nonan-7-yl 1-(2,2-difluoroethyl)-5-fluoro-1H-indole-3-carboxylate, 2,2,2-trifluoroacetate]",0.24 nM
6,"CN1[C@@H]2CC[C@H]1CC(NC(=O)c1cn(S(C)(=O)=O)c3ccccc13)C2 (stereo partly drawn) [Example 74, N-((1R,3R,5S)-8-methyl-8-azabicyclo[3.2.1]octan-3-yl)-1-(methylsulfonyl)-1H-indole-3-carboxamide, 2,2,2-trifluoroacetate]",0.42 nM
7,"O=C(OC1C[C@H]2COC[C@@H](C1)N2CCF)c1cn(CC(F)(F)F)c2ccc(F)cc12 (stereo partly drawn) [Example 50, (1R,5S,7S)-9-(2-fluoroethyl)-3-oxa-9-azabicyclo[3.3.1]nonan-7-yl 5-fluoro-1-(2,2,2-trifluoroethyl)-1H-indole-3-carboxylate, 2,2,2-trifluoroacetate]",13 nM
8,"CN1[C@@H]2COC[C@H]1CC(NC(=O)c1nn(CC(F)(F)F)c3ccccc13)C2 (stereo partly drawn) [Example 126, N-((1R,5S,7S)-9-methyl-d3-3-oxa-9-azabicyclo[3.3.1]nonan-7-yl)-1-(2,2,2-trifluoroethyl)-1H-indazole-3-carboxamide, 2,2,2-trifluoroacetate]",0.86 nM
9,"CN1[C@@H]2COC[C@H]1CC(NC(=O)c1cn(CCF)c3ccccc13)C2 (stereo partly drawn) [Example 127, 1-(2-fluoroethyl)-N-((1R,5S,7S)-9-methyl-d3-3-oxa-9-azabicyclo[3.3.1]nonan-7-yl)-1H-indole-3-carboxamide, 2,2,2-trifluoroacetate]",0.22 nM
10,"O=C(NC1C[C@H]2COC[C@@H](C1)N2)c1nn(CC(F)F)c2ccccc12 (stereo partly drawn) [Example 65, N-((1R,5S,7S)-3-oxa-9-azabicyclo[3.3.1]nonan-7-yl)-1-(2,2-difluoroethyl)-1H-indazole-3-carboxamide, 2,2,2-trifluoroacetate]",4.09 nM
11,"CN1[C@@H]2COC[C@H]1C[C@@H](NC(=O)c1cn(-c3nccs3)c3ncccc13)C2 [Example 146, N-((1R,5S,7s)-9-methyl-3-oxa-9-azabicyclo[3.3.1]nonan-7-yl)-1-(thiazol-2-yl)-1H-pyrrolo[2,3-b]pyridine-3-carboxamide, 2,2,2-trifluoroacetic acid salt]",0.702 nM
12,"CN1[C@@H]2COC[C@H]1C[C@@H](OC(=O)c1cn(-c3ccc(F)nn3)c3ccc(C#N)cc13)C2 [Example 161, 1R,5S,7s)-9-methyl-3-oxa-9-azabicyclo[3.3.1]nonan-7-yl 5-cyano-1-(6-fluoropyridazin-3-yl)-1H-indole-3-carboxylate]",> 1000 nM
13,"CN1C2COCC1CC(NC(=O)c1cn(CC(F)F)c3ncccc13)C2 [Example 64, 1-(2,2-difluoroethyl)-N-((1R,5S,7S)-9-methyl-3-oxa-9-azabicyclo[3.3.1]nonan-7-yl)-1H-pyrrolo[2,3-b]pyridine-3-carboxamide, 2,2,2-trifluoroacetate]",1.43 nM
14,"CN1C2COCC1CC(NC(=O)c1cn(C(C)(C)C(F)(F)F)c3ncccc13)C2 [Example 69, N-((1R,5S,7S)-9-methyl-3-oxa-9-azabicyclo[3.3.1]nonan-7-yl)-1-(1,1,1-trifluoro-2-methylpropan-2-yl)-1H-pyrrolo[2,3-b]pyridine-3-carboxamide, 2,2,2-trifluoroacetate]",1.06 nM
15,"CN1C2COCC1CC(OC(=O)c1cn(-c3ccc(O)nn3)c3ccccc13)C2 [Example 169, (1R,5S,7s)-9-methyl-3-oxa-9-azabicyclo[3.3.1]nonan-7-yl 1-(6-hydroxypyridazin-3-yl)-1H-indole-3-carboxylate, 2,2,2-trifluoroacetic acid salt]",0.598 nM
